Measurements taken from patent publication US20250186467A1, “METHODS OF TREATING MEDICAL CONDITIONS USING STAMPIDINE OR A RELATED COMPOUND” (ROME Therapeutics, Inc., priority 2022, published 2025).

Columns and labels:
Type in all cases: cell-based
[1] = tested on: IFN-β; assay: Decitabine-stimulated human PBMC assay, IFN-β; conditions: PBMCs with anti-CD3/anti-CD28 and 10 μM decitabine, 5 days
Protocol: EasySep buffer (32 mL, Stem Cell, cat. #20144) was used to dilute 8 mL of LRSC buffy coat (from fresh Leukopak) with gentle mixing. The diluted buffy coat (20 mL) was transferred into each of two SepMate 50 tubes, and the tubes were filled with 15 mL of Lyphoprep (Stem Cell, ct. #07851) density gradient. The SepMate tubes were then centrifuged at 1200G for 10 minutes at room temperature with the brake on. The top layer of supernatant was collected in SepMate tubes by quickly pouring it into a new 50 mL conical tube. The PBMCs were washed with EasySep buffer×2 by centrifuging at 300G for 5 minutes. The cells were resuspended in 30 mL of EasySep and centrifuged at 100G for 5 minutes with the brake off, and the platelets were removed. The cells were then resuspended in 6 mL of 1× RBC lysis buffer (InvitroGen) and incubated at 37° C. for 5 minutes. Then, 25 mL of EasySep buffer was mixed into the tube and it was centrifuged at 300G for 5 minutes. The cells were resuspended in 10 mL of EasySep buffer and the cells were then counted with Cellometer (AO/PI). The PBMCs were resuspended in RPMI1640 (ThermoFisher)+10% FBS (HyClone)+p/s at 3×10^6/mL. The PBMCs (100 μL, 300 k PBMCs) were then seeded in a 96-well flat bottom microplate (Corning) that had been precoated with 100 μL of anti-CD3 antibody (10 μg/mL in PBS, Biolegend) or PBS at 4° C., one day before the assay was commenced. […]

[2] = tested on: PBMCs; assay: Decitabine-stimulated human PBMC assay, cell viability; conditions: PBMCs with 10 μM decitabine, 5 days
Protocol: After 5 days, the plate was spun down at 100×G for 5 minutes. Supernatants (100 μL) was collected for interferon β (IFN-β) analysis using the MSD assay noted above, and any residual supernatant was stored at −80° C.

[3] = tested on: phosphorylated TANK-binding kinase 1 (pTBK1); assay: UVB-induced pTBK1 in HaCaT cells; conditions: 96 hours of treatment before UVB, 24 hours post-UVB, ELISA
Protocol: HaCaT cells were plated in 6-well plates at a density of ˜100 k/well in HaCaT media (DMEM, optimized 1× (Addex Bio)+1% pen strep (Gibco)+5% heat inactivated fetal bovine serum (Gibco)). The cells were then cultured at 37° C. overnight. The next day, the cells were treated with the test compounds. Each test compound was diluted and added to media aliquots to provide desired concentrations. To add the test compound+media mixture, an equivalent amount of media from each well was aspirated and then replenished with the media dosed with the test compound. The cells were then cultured for an additional 96 hours with compound treatment prior to UVB exposure.
The media was then aspirated from the wells, with the remaining cells at least 80% confluent in each well. One mL of PBS was then added to each well, and the plate was then placed under a UVB lamp. A UVB sensor was positioned near the plate to register the plate's exposure. The cells were exposed to the UVB light until they reached 0.1 mJ/cm^2. Then the plate was covered and transferred to a sterile hood for processing. […]
A RIPA lysis buffer (#BP-115, Boston Bio-Products) was added to a Halt protease and […] inhibitor cocktail (#78440, ThermoFisher), and the mixture was cooled on ice. […] The protein concentration of the cell lysate was measured using Pierce™ Rapid Gold BCA Protein Assay Kit #AF3225 (ThermoFisher). […]

SMILES: COC(=O)[C@H](C)N[P@](=O)(OC[C@@H]1C=C[C@H](n2cc(C)c(=O)[nH]c2=O)O1)Oc1ccc(Br)cc1 [Stampidine, methyl ((S)-(4-bromophenoxy)(((2S,5R)-5-(5-methyl-2,4-dioxo-3,4-dihydropyrimidin-1(2H)-yl)-2,5-dihydrofuran-2-yl)methoxy)phosphoryl)-L-alaninate]
- inhibition of IFN-β [1]: showed inhibition of IFN-β
- cellular toxicity [2]: without any cellular toxicity
- reduction of UVB-induced pTBK1 [3]: showed a reduction of UVB-induced phosphorylated TANK-binding kinase 1 (pTBK1)
